{"source": "paper PMC7181426", "about": "(Clinical Drug Investigation, 2020)", "format_in_all_cases": "in vivo, human", "key": {"[1]": {"assay": "Single-dose pharmacokinetics", "details": "for CL/F, Mean (SD) / Aelast%, Mean (SD) / Aelast, Mean (SD): fasted; for Aelast%, Mean (SD) / Aelast, Mean (SD): urine"}, "STAT5 phosphorylation": {"test_system": "STAT5 phosphorylation", "assay": "Inhibition of STAT5 phosphorylation in IL-2-stimulated CD3-positive lymphocytes", "details": "single doses 20–200 mg, Japanese and Caucasian"}, "Multiple-dose": {"assay": "Multiple-dose", "details": "for AUC: AUC12, Mean (SD); for Cmax: Mean (SD); for Tmax: Median; for Ae12%, Mean (SD) / Ae12, Mean (SD): urine"}, "[2]": {"test_system": "peripheral lymphocyte subsets", "assay": "Peripheral lymphocyte subsets by flow cytometry, multiple-dose study", "details": "100 mg, 72 h after twice-daily dosing on day 7"}, "[3]": {"details": "Caucasian, single oral dose 20 mg"}, "[4]": {"details": "Caucasian, single oral dose 60 mg"}, "[5]": {"details": "Caucasian, single oral dose 200 mg"}, "[6]": {"details": "Japanese, single oral dose 20 mg"}, "[7]": {"details": "Japanese, single oral dose 60 mg"}, "[8]": {"details": "Japanese, single oral dose 200 mg"}, "[9]": {"details": "male, human, plasma, oral, 10 mg, Japanese, 10 mg bid, Day 1"}, "[10]": {"details": "male, human, plasma, oral, 10 mg, Japanese, 10 mg bid, Day 7"}, "[11]": {"details": "male, human, plasma, oral, 30 mg, Japanese, 30 mg bid, Day 1"}, "[12]": {"details": "male, human, plasma, oral, 30 mg, Japanese, 30 mg bid, Day 7"}, "[13]": {"details": "male, human, plasma, oral, 100 mg, Japanese, 100 mg bid, Day 1"}, "[14]": {"details": "male, human, plasma, oral, 100 mg, Japanese, 100 mg bid, Day 7"}}, "note": "“And” between values parts separate entries of the source, which are not always exact repeats. Equal values may be shown once.", "data": [{"smiles": "NC(=O)c1cnc2[nH]ccc2c1N[C@@H]1[C@@H]2CC3C[C@H]1C[C@@](O)(C3)C2", "note": "[peficitinib, Peficitinib]", "values": [{"measurement": "CL/F, Mean (SD)", "setting": "[1]; [3]", "result": "108.5 (30.0) L/h"}, {"measurement": "CL/F, Mean (SD)", "setting": "[1]; [4]", "result": "117.8 (23.6) L/h"}, {"measurement": "CL/F, Mean (SD)", "setting": "[1]; [5]", "result": "133.1 (15.0) L/h"}, {"measurement": "CL/F, Mean (SD)", "setting": "[1]; [6]", "result": "78.9 (13.5) L/h"}, {"measurement": "CL/F, Mean (SD)", "setting": "[1]; [7]", "result": "79.8 (19.2) L/h"}, {"measurement": "CL/F, Mean (SD)", "setting": "[1]; [8]", "result": "79.8 (8.2) L/h"}, {"measurement": "Tmax", "setting": "[1]; male, human, plasma, oral, median tmax, range, single-dose administration, both Japanese and Caucasian subjects", "result": "1 to 2", "unit": "h"}, {"measurement": "geometric mean ratio for dose-normalized AUCinf, higher in Japanese versus Caucasian subjects", "setting": "[1]; single doses 20, 60, 200 mg", "result": "33.8–66.4%"}, {"measurement": "geometric mean ratio for dose-normalized Cmax, higher in Japanese versus Caucasian subjects", "setting": "[1]; single doses 20, 60, 200 mg", "result": "45.7–98.8%"}, {"measurement": "AUCinf higher in Japanese subjects compared with Caucasian subjects", "setting": "[1]; single doses 20 to 200 mg", "result": 49, "unit": "%"}, {"measurement": "Cmax higher in Japanese subjects compared with Caucasian subjects", "setting": "[1]; single doses 20 to 200 mg", "result": 70, "unit": "%"}, {"measurement": "Dose proportionality of Cmax and AUCinf", "setting": "[1]; single doses, dose range of 20–200 mg", "result": "demonstrated"}, {"measurement": "Aelast%, Mean (SD)", "setting": "[1]; [3]", "result": "14.2 %dose and 14.2 (3.6) %dose"}, {"measurement": "Aelast, Mean (SD)", "setting": "[1]; [3]", "result": "2.9 (0.7) mg"}, {"measurement": "Aelast%, Mean (SD)", "setting": "[1]; [4]", "result": "10.6 (3.6) %dose"}, {"measurement": "Aelast, Mean (SD)", "setting": "[1]; [4]", "result": "6.4 (2.2) mg"}, {"measurement": "Aelast%, Mean (SD)", "setting": "[1]; [5]", "result": "9.9 %dose and 9.9 (1.2) %dose"}, {"measurement": "Aelast, Mean (SD)", "setting": "[1]; [5]", "result": "19.8 (2.4) mg"}, {"measurement": "Aelast%, Mean (SD)", "setting": "[1]; [6]", "result": "16.8 %dose and 16.8 (4.1) %dose"}, {"measurement": "Aelast, Mean (SD)", "setting": "[1]; [6]", "result": "3.4 (0.8) mg"}, {"measurement": "Aelast%, Mean (SD)", "setting": "[1]; [7]", "result": "14.8 (2.8) %dose"}, {"measurement": "Aelast, Mean (SD)", "setting": "[1]; [7]", "result": "8.9 (1.7) mg"}, {"measurement": "Aelast%, Mean (SD)", "setting": "[1]; [8]", "result": "12.5 %dose and 12.5 (2.7) %dose"}, {"measurement": "Aelast, Mean (SD)", "setting": "[1]; [8]", "result": "25.1 (5.4) mg"}, {"measurement": "Mean peak inhibition of STAT5 phosphorylation, dose dependence", "setting": "STAT5 phosphorylation", "result": "increased with increasing single doses of peficitinib"}, {"measurement": "CL/F, Mean (SD)", "setting": "Multiple-dose; Japanese, 10 mg bid, Day 1", "result": "87.7 (23.6) L/h"}, {"measurement": "CL/F, Mean (SD)", "setting": "Multiple-dose; Japanese, 10 mg bid, Day 7", "result": "71.0 (13.6) L/h"}, {"measurement": "CL/F, Mean (SD)", "setting": "Multiple-dose; Japanese, 30 mg bid, Day 1", "result": "83.3 (14.6) L/h"}, {"measurement": "CL/F, Mean (SD)", "setting": "Multiple-dose; Japanese, 30 mg bid, Day 7", "result": "69.6 (13.5) L/h"}, {"measurement": "CL/F, Mean (SD)", "setting": "Multiple-dose; Japanese, 100 mg bid, Day 1", "result": "71.2 (8.7) L/h"}, {"measurement": "CL/F, Mean (SD)", "setting": "Multiple-dose; Japanese, 100 mg bid, Day 7", "result": "55.7 (9.3) L/h"}, {"measurement": "AUC12 on day 7 higher than AUC12 after the first dose", "setting": "Multiple-dose; Japanese, 10–100 mg bid", "result": "25–37%"}, {"measurement": "Cmax on day 7 higher than Cmax after the first dose", "setting": "Multiple-dose; Japanese, 10–100 mg bid", "result": "13–28%"}, {"measurement": "Steady-state plasma concentrations achieved by", "setting": "Multiple-dose; Japanese, twice-daily dosing, visual prediction", "result": "≤ 3", "unit": "days"}, {"measurement": "half-life at 7 day", "setting": "Multiple-dose; male, human, plasma, oral", "result": "6 to 7.4", "unit": "h"}, {"measurement": "half-life", "setting": "Multiple-dose; male, human, plasma, oral, 10 mg", "result": 6, "unit": "h"}, {"measurement": "AUC", "setting": "Multiple-dose; [9]", "result": 114, "unit": "ng·h/mL"}, {"measurement": "AUC", "setting": "Multiple-dose; [10]", "result": 145, "unit": "ng·h/mL"}, {"measurement": "Cmax", "setting": "Multiple-dose; [9]", "result": 28.5, "unit": "ng/mL"}, {"measurement": "Cmax", "setting": "Multiple-dose; [10]", "result": 36.4, "unit": "ng/mL"}, {"measurement": "Tmax", "setting": "Multiple-dose; [9]", "result": 1.5, "unit": "h"}, {"measurement": "Tmax", "setting": "Multiple-dose; [10]", "result": 2.5, "unit": "h"}, {"measurement": "half-life", "setting": "Multiple-dose; male, human, plasma, oral, 30 mg", "result": 6.1, "unit": "h"}, {"measurement": "AUC", "setting": "Multiple-dose; [11]", "result": 354, "unit": "ng·h/mL"}, {"measurement": "AUC", "setting": "Multiple-dose; [12]", "result": 444, "unit": "ng·h/mL"}, {"measurement": "Cmax", "setting": "Multiple-dose; [11]", "result": 93.5, "unit": "ng/mL"}, {"measurement": "Cmax", "setting": "Multiple-dose; [12]", "result": 106, "unit": "ng/mL"}, {"measurement": "Tmax", "setting": "Multiple-dose; [11]", "result": 2, "unit": "h"}, {"measurement": "Tmax", "setting": "Multiple-dose; [12]", "result": 2, "unit": "h"}, {"measurement": "half-life", "setting": "Multiple-dose; male, human, plasma, oral, 100 mg", "result": 7.4, "unit": "h"}, {"measurement": "AUC", "setting": "Multiple-dose; [13]", "result": 1340, "unit": "ng·h/mL"}, {"measurement": "AUC", "setting": "Multiple-dose; [14]", "result": 1830, "unit": "ng·h/mL"}, {"measurement": "Cmax", "setting": "Multiple-dose; [13]", "result": 383, "unit": "ng/mL"}, {"measurement": "Cmax", "setting": "Multiple-dose; [14]", "result": 483, "unit": "ng/mL"}, {"measurement": "Tmax", "setting": "Multiple-dose; [13]", "result": 2, "unit": "h"}, {"measurement": "Tmax", "setting": "Multiple-dose; [14]", "result": 2, "unit": "h"}, {"measurement": "Ae12%, Mean (SD)", "setting": "Multiple-dose; Japanese, 10 mg bid, Day 1", "result": "14.9 (4.4) %dose"}, {"measurement": "Ae12, Mean (SD)", "setting": "Multiple-dose; Japanese, 10 mg bid, Day 1", "result": "1.5 (0.4) mg"}, {"measurement": "Ae12%, Mean (SD)", "setting": "Multiple-dose; Japanese, 10 mg bid, Day 7", "result": "32.0 (3.4) %dose"}, {"measurement": "Ae12, Mean (SD)", "setting": "Multiple-dose; Japanese, 10 mg bid, Day 7", "result": "3.2 (0.3) mg"}, {"measurement": "Ae12%, Mean (SD)", "setting": "Multiple-dose; Japanese, 30 mg bid, Day 1", "result": "15.6 (4.0) %dose"}, {"measurement": "Ae12, Mean (SD)", "setting": "Multiple-dose; Japanese, 30 mg bid, Day 1", "result": "4.7 (1.2) mg"}, {"measurement": "Ae12%, Mean (SD)", "setting": "Multiple-dose; Japanese, 30 mg bid, Day 7", "result": "26.4 %dose and 26.4 (4.2) %dose"}, {"measurement": "Ae12, Mean (SD)", "setting": "Multiple-dose; Japanese, 30 mg bid, Day 7", "result": "7.9 (1.3) mg"}, {"measurement": "Ae12%, Mean (SD)", "setting": "Multiple-dose; Japanese, 100 mg bid, Day 1", "result": "19.2 (2.7) %dose"}, {"measurement": "Ae12, Mean (SD)", "setting": "Multiple-dose; Japanese, 100 mg bid, Day 1", "result": "19.2 (2.7) mg"}, {"measurement": "Ae12%, Mean (SD)", "setting": "Multiple-dose; Japanese, 100 mg bid, Day 7", "result": "37.7 %dose and 37.7 (9.8) %dose"}, {"measurement": "Ae12, Mean (SD)", "setting": "Multiple-dose; Japanese, 100 mg bid, Day 7", "result": "37.7 (9.8) mg"}, {"measurement": "largest change: decrease in the subset of CD3+, CD45RA+ and total naïve cells", "setting": "[2]", "result": 7.50, "unit": "%"}]}]}
